Laboratory results published in article PMC9115111, “Metalloprotease Gp63-Targeting Novel Glycoside Exhibits Potential Antileishmanial Activity” (Frontiers in Cellular and Infection Microbiology, 2022).
Values joined by “and” are separate entries in the source; they are usually repeats but may differ in a detail not shown here. Equal values may be shown once.

What was measured:
[1] = test system: L. donovani promastigotes; assay: Hoechst/PI live/dead dual staining of promastigotes; type: cell-based, Leishmania donovani; details: 5 µM, 72 h
Protocol: The toxic effect of the three compounds, Gly2, 6, and 8 on promastigotes at 5 µM >IC50 concentration was measured by Hoechst and propidium iodide (PI) double staining. […], parasites were harvested, washed in 0.01 M PBS (pH = 7.4), and stained with Hoechst 33258 (1 µg/ml) (Life Technologies, USA) and PI (5 µg/ml) (Life Technologies, USA) followed by incubation for a period of 20 min at 37°C. Subsequently, cells were washed for excessive stain removal and visualized using fluorescence microscope with 510–560-nm filter block for PI red fluorescence and excitation/emission spectra at 361/497 for Hoechst ([López-Arencibia et al., 2015]).

[2] = test system: J774.A1 murine macrophage cells; assay: MTT cell viability assay on macrophages; type: cell-based; details: MTT assay
Protocol: (§1) The J774.A1 murine macrophage cells were grown in Roswell Park Memorial Institute (RPMI) 1640 medium in the presence of 10% (v/v) FBS and 100 U/ml penicillin−100 µg/ml streptomycin (Gibco, Invitrogen, Thermo Fisher Scientific, NY, USA) at 37°C (humidified) and 5% CO2. […] Madin–Darby canine kidney (MDCK) cells were obtained from the National Centre for Cell Science, Pune, India. MDCK cells were derived from the kidney tissue of an adult female Cocker Spaniel. These were grown in Dulbecco’s modified Eagle’s minimal essential medium (DMEM) in the presence of 10% (v/v) FBS and 100 U/ml penicillin−100 µg/ml streptomycin (Gibco, Invitrogen, Thermo Fisher Scientific, NY, USA) at 37°C (humidified) and 5% CO2 ([Ayana et al., 2018]; [Shivappagowdar et al., 2021]).
(§2) All the compounds were dissolved in dimethyl sulfoxide (DMSO) (Sigma-Aldrich) for 1 mM stock solution and were screened against promastigotes at a concentration of 5 µM. For Glycosides (Gly) 2, 6, and 8, a range of concentrations starting from 100 nM to 100 µM were screened against promastigote forms of parasite and mammalian cells. Parasites (AG83 and PKDL strain) treated with amphotericin B (3 µg/ml) (Sigma-Aldrich) were maintained as the positive control.
(§3) To evaluate the cytotoxic effects of 12 compounds on L. donovani promastigotes, LDH assay was performed. This assay involves the reduction of tetrazolium salts to formazan during LDH-mediated catalysis of lactate to pyruvate, which can be detected at […]. Rate of formazan formation is proportional to the release of LDH through damaged cell membranes. For the preliminary screening, the promastigotes were incubated with 12 compounds at a single concentration of 5 µM for a period of 72 h, and the released LDH was estimated ( Supplementary Figure S1A ). Amphotericin B-treated promastigotes were taken as the positive control. […] Having observed the antileishmanial effect of Gly2 on growth and proliferation of promastigotes, we next investigated the cytotoxicity of Gly2 on mammalian cells (MDCK, J774.1A) through MTT (3-(4, 5-dimethylthiazolyl-2)-2, 5-diphenyltetrazolium bromide) cell viability assay ( Supplementary Figures S1B, C ). […] The CC50 values of Gly2 analog was in the micromolar range. The selectivity index (SI) for the compound was calculated as the ratio between cytotoxicity (CC50) and activity (IC50) against promastigotes ( Table 1 ).

[3] = MTT cell viability assay on macrophages; type: cell-based, murine; details: mouse, J774.A1 macrophage cells; Table 1; macrophages
Protocol: as §1, §2, §3

## CC(C)CCOC1O[C@H](CO)[C@@H](O)[C@H](O)[C@H]1O (stereo partly drawn) [Gly2]
[1]
  dead parasites (PI positive): ~ 94% and ~ 94.15% and ~ 90%
[2]
  cytotoxicity in macrophage cells: minimum level of cytotoxicity
[3]
  CC50: 2.9 mM
